Results taken from paper PMC6453136 (Cellular signalling, 2018).

Tests used:
cAR1 [1] = biological target: T1, cAR1 (Dictyostelium discoideum, UniProt P13773)
T1 sequence (P13773 1-392): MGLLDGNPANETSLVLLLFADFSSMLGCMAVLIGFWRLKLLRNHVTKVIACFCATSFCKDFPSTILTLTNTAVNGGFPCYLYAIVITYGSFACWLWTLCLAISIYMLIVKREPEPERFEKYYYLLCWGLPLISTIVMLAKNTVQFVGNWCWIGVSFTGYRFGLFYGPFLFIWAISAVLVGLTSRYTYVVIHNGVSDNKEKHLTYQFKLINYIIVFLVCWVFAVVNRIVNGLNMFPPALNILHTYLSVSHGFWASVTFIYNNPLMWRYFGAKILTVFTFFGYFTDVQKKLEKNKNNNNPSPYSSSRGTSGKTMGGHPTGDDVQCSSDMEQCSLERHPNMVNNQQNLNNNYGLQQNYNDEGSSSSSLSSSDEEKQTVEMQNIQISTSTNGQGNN

[2] = test system: cAMP-induced Gα2βγ subunit dissociation; assay: BRET^2 assay after drug pretreatment; type: cell-based, Dictyostelium; settings: for effect on interaction of Gα2 with βγ in resting cells (basal BRET^2 signal): 5 μM LatA or 50 μM Benomyl for 15 min
cAMP binding sites = settings: 10 mM caffeine, whole cells; cited from earlier work
[3] = test system: 5.5 h-differentiated wild-type cells; assay: DIC and fluorescence confocal imaging of drug-treated cells; type: cell-based, Dictyostelium; settings: 5 μM LatA or 50 μM Benomyl for 15 min; Lifeact-GFP / tubulin-GFP reporters
cAR1 [4] = biological target: T1, cAR1; assay: cell-based

Nc1ncnc2c1ncn2[C@@H]1O[C@@H]2COP(=O)(O)O[C@H]2[C@H]1O [cAMP, cyclic adenosine monophosphate]
time to steady state of BRET^2 loss after stimulation (cAR1 [1]; 10 μM cAMP): approximately 20 s
decrease in total BRET^2 signal (cAR1 [1]; 10 μM cAMP, Gα2GFP^2/Rluc2Gβ/gα2^− cells): 30–40
total BRET^2 signal after stimulation (cAR1 [1]; 10 μM cAMP, Gα2GFP^2/Rluc2Gβ/gα2^− cells, 63 mBU before stimulation): 36 mBU
G protein subunit dissociation in cells lacking cAR1 (cAR1 [1]; 10 μM cAMP, carA^− and carA^−carC^− cells, undifferentiated and 5.5 h-differentiated): fails to induce considerable G protein subunit dissociation
cAMP concentration inducing the full G protein dissociation response (cAR1 [1]; Gα2GFP^2/Rluc2Gβ/gα2^− cells): 500 nM
G protein subunit dissociation in cells lacking only cAR3 (extent and potency) (cAR1 [1]; carC^− cells): comparable to that in wild-type cells

Cn1c(=O)c2c(ncn2C)n(C)c1=O [caffeine]
effect of caffeine on potency of cAMP-induced Gα2βγ subunit dissociation ([2]; 5 mM caffeine, in parallel to untreated cells): significantly increased potency
effect on cAMP binding sites (cAMP binding sites): conversion of most binding sites to the low affinity conformation

CCCCNC(=O)n1c(NC(=O)OC)nc2ccccc21 [Benomyl]
effect on interaction of Gα2 with βγ in resting cells (basal BRET^2 signal) [2]: did not affect
effect on cell morphology [3]: loss of morphological cell polarity

Nc1ncnc2c1ncn2[C@H]1C[C@H](O)[C@@H](COP(=O)(O)O)O1 [2’-dcAMP, 2’-deoxyadenosine-5’-monophosphate]
EC50 (cAR1 [4]): ~17 nM

C/C1=C/C(=O)O[C@@H]2C[C@@H](CC[C@H](C)/C=C\C=C\CC1)O[C@@](O)([C@@H]1CSC(=O)N1)C2 [LatA, Latrunculin A]
effect on interaction of Gα2 with βγ in resting cells (basal BRET^2 signal) [2]: did not affect
effect on cell morphology [3]: loss of morphological cell polarity
